Measurements: US20220241278A1 (InCarda Therapeutics, Inc., priority 2021, published 2022)

What was measured:
[1] = Appearance of about 30 mg/mL imatinib free base in 30% SBEβCD, 50 mM phosphate buffer at different pH; settings: about 30 mg/mL in 30% SBβCD
[2] = Rat pharmacokinetics: lung tissue and plasma concentration after IV or IT administration; assay type: in vivo, Sprague Dawley rats; settings: IV data, 60 min sample collection period
Experimental: Lung tissue and blood were collected for analysis.
Test System: 72 male Sprague Dawley rats (Charles River Laboratories) were used for the study, 8 weeks old, body weight range at study start was 245.8-317 g.
Experimental Design and Execution: In brief, after the animals were transferred to study, all animals were randomly assigned to treatment groups per the study design below. Animals were treated either via intravenous (IV) administration of formulation R1, or via intratracheal (IT) administration for formulation R2 of the test article.
Plasma and lung concentration vs. time data was analyzed using JMP version 15.2.0. Averages for each time point are reported for groups/time points that have a minimum of 2 animals.
The Therapeutic Advantage (Rd) in Table 8 was calculated using the following equation: […]

Compound: Cc1ccc(NC(=O)c2ccc(CN3CCN(C)CC3)cc2)cc1Nc1nccc(-c2cccnc2)n1 [imatinib free base, imatinib]
- appearance of the mixture ([1]; pH 3): clear solutions
- appearance of the mixture ([1]; pH 5): clear solutions
- appearance of the mixture ([1]; pH 7): white suspension
- distribution between lung tissue and plasma [2]: preferentially accumulates in the lung tissue
